What follows are compounds tested against T1, Tie-2-Kinase (Homo sapiens, UniProt Q02763) (assay: Tie-2-Kinase HTRF-Assay). Details: either in the Tie2 kinase assay or in the Tie2 autophosphorylation ELISA test; read-out: IC50, inhibit Tie2.
T1 construct: made in house
Assay type: biochemical
Excerpt: Tie-2 phosphorylates tyrosine residues of the artificial substrate polyGAT (biotinylated polyGluAlaTyr). Detection of phosphorylated product is achieved specifically by a trimeric detection complex consisting of the phosphorylated substrate, streptavidin-XLent (SA-XLent) which binds to biotin, and Europium Cryptate-labeled anti-phosphotyrosine antibody PT66 which binds to phosphorylated tyrosine. Excitation of Europium fluorescence with 337 nm light results in emission of long-lived light with 620 nm. In case a trimeric detection complex has formed, part of the energy will be transferred to the SA-XLent fluorophore that itself then emits long-lived light of 665 nm (FRET: fluorescence resonance energy transfer). […] Measurement is performed in a Packard Discovery or BMG Rubystar instrument. A-counts (emission at 665 nm) will be divided by B-counts (emission at 620 nm) and multiplicated with a factor of 10000. The resulting numbers are called the “well ratio” of the sample.
• Enzyme: Tie-2-Kinase, in house, aliquots (12×10 mL) stored at −80° C. • Substrate: PolyGAT labeled with Biotin (1000 μg/mL); ClS Bio; # 61GATBLB; • aliquots stored at −20° C. • ATP: Amersham Pharmacia Biotech Inc. # 27-2056-01; 100 mM; stored at −20° C. • Antibody: PT66-Eu Cryptate; CIS Bio; # 61T66KLB; 30 μg/mL; aliquots stored at −20° C. • SA-XLent; CIS Bio; # 611SAXLB; 1000 μg/mL; aliquots stored at −80° C. • Microplates: 384 Well black, SV, Greiner, # 784076 Solutions: Assay Buffer: • 50 mM HEPES (pH 7.0), 25 mM MgCl2, 5 mM MnCl2, 1 mM DTT, 0.5 mM Na3VO4, 0.01% (v/v) NP40, 1× Complete EDTA free Enzyme Working Solution: • Tie-2 stock solution is diluted 1:250 in assay buffer Substrate Working Solution: • PolyGAT (1000 μg/mL; 36.23 μM) is diluted 1:90.6 to 400 nM or 77.3 ng/well, ATP (100 mM) is diluted 1:5000 to 20.0 μM. Both dilutions in assay buffer. Final assay concentrations: poly-GAT: 200 nM or 5.25 μg/mL, ATP: 10 μM (1×Km each). • Detection solution: 50 mM HEPES (pH 7.0), BSA 0.2%, 0.6 M KF, 200 mM EDTA, PT66-Europium Cryptate 2.5 ng/well, SA-XLent Cis Bio 90 ng/well. Assay Steps All Steps at 20° C. • 1. 0.75 μL of compound solution in 30% (v/v) DMSO • 2. add 7 μL of substrate working solution • 3. add 7 μL of enzyme working solution • 4. incubate 75 min (reaction volume: 14.75 μL) • 5. add 8 μL of detection solution • 6. incubate 180 min or over night at 4° C. (total volume: 22.75 μL) • 7. measure HTRF in Packard Discovery or BMG Rubystar instrument (delay 50 μs, integrated time 400 μs) Final Concentrations (in 14.75 μL Reaction Volume): • Enzyme: unknown • polyGAT (1×Km): 200 nM (77.3 ng) • ATP (1×Km): 10 μM • DMSO: 1.5% (v/v) • Buffer conditions: 50 mM HEPES (pH 7.0), 25 mM MgCl2, 5 mM MnCl2, 1 mM DTT, 0.5 mM NaVO4, 0.01% (v/v) NP40, 1× Complete Controls: • C0: uninhibited reaction (DMSO only) • Ci: inhibited reaction with 20 μM Staurosporine Biological Experiment 3: Proliferation Test

T1 sequence (Q02763 23-1124): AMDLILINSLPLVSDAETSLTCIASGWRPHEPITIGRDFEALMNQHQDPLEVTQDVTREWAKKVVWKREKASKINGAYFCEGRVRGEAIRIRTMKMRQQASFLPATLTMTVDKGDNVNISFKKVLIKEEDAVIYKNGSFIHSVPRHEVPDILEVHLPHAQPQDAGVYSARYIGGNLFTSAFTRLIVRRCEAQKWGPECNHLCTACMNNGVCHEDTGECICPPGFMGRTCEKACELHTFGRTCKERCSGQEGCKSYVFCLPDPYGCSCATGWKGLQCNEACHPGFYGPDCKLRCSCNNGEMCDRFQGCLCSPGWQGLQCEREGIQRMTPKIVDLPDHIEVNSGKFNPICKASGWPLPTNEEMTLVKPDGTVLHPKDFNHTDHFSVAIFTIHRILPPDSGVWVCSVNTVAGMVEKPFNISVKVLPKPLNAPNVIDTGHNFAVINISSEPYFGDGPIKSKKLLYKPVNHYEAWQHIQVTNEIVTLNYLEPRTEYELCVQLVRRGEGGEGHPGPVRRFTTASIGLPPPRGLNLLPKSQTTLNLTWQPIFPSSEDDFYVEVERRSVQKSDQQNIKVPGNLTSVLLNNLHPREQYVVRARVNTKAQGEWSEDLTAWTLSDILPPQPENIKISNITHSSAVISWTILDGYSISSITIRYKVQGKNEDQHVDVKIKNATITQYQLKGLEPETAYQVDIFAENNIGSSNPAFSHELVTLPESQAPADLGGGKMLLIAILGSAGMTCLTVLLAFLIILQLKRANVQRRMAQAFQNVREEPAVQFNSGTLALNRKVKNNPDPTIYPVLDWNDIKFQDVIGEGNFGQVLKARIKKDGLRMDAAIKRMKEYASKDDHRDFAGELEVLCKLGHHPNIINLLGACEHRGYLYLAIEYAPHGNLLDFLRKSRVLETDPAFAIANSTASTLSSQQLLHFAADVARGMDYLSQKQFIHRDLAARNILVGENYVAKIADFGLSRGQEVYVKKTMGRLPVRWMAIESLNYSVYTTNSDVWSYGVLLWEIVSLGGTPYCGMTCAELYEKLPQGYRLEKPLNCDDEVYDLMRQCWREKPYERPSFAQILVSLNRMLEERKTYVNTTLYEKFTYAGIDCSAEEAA

Structure (SMILES)	IC50 [nM]
O=S1(=O)NCCCNc2nc(ncc2-c2ccc3c(c2)OCO3)Nc2cccc1c2 [Example 1, 1^5-(1,3-benzodioxol-5-yl)-4-thia-2,5,9-triaza-1(2,4) pyrimidina-3(1,3)-benzenacyclonona-phane 4,4-dioxide]	≤ 1000
O=C(Nc1ccccc1)Nc1ccc(-c2cnc3nc2NCCCNS(=O)(=O)c2cccc(c2)N3)cc1 [Example 8, N-[4-[4,4-dioxo-4λ^6-thia-2,5,9-triaza-1(2,4)-pyrimidina-3(1,3)-benzena-cyclononaphan-1^5-yl]phenyl]-N′-phenylurea]	≤ 1000
O=C(Nc1ccc(-c2cnc3nc2NCCCNS(=O)(=O)c2cccc(c2)N3)cc1)Nc1cccc(C(F)(F)F)c1 [Example 9, N-[4-[4,4-dioxo-4λ^6-thia-2,5,9-triaza-1(2,4)-pyrimidina-3(1,3)-benzena-cyclononaphan-1^5-yl]phenyl]-N′-[3-(trifluoromethyl)-phenyl]urea]	≤ 1000
O=C(Nc1ccc(-c2cnc3nc2NCCCNS(=O)(=O)c2cccc(c2)N3)cc1)Nc1cc(C(F)(F)F)ccc1F [Example 10, N-[4-[4,4-dioxo-4λ^6-thia-2,5,6-triaza-1(2,4)-pyrimidina-3(1,3)-benzena-cyclononaphan-1^5-yl]phenyl]-N′-[2-fluoro-5-(trifluoromethyl)-phenyl]urea]	≤ 1000
COc1ccc(S(=O)(=O)Nc2ccc(-c3cnc4nc3NCCCNS(=O)(=O)c3cccc(c3)N4)cc2)cc1 [Example 23, N-[4-[4,4-dioxo-4λ^6-thia-2,5,9-triaza-1(2,4)-pyrimidina-3(1,3)-benzena-cyclononaphan-1^5-yl]phenyl]-4-methoxybenzene-sulfonamide]	≤ 1000

The remaining lines, values ahead:

IC50 [nM]	Structure (SMILES)
≤ 1000	O=C(COc1ccc(-c2cnc3nc2NCCCNS(=O)(=O)c2cccc(c2)N3)cc1)c1ccc(F)cc1 [Example 2, 2-[4-[4,4-dioxo-4λ^6-thia-2,5,9-triaza-1(2,4)-pyrimidina-3(1,3)-benzenacyclo-nonaphan-1^5-yl]phenoxy]-1-(4-fluorophenyl)-ethanone]
≤ 1000	O=C(COc1ccc(-c2cnc3nc2NCCCNS(=O)(=O)c2cccc(c2)N3)cc1)c1ccccc1 [Example 3, 2-[4-[4,4-dioxo-4λ^6-thia-2,5,9-triaza-1(2,4)-pyrimidina-3(1,3)-benzenacyclo-nonaphan-1^5-yl]phenoxy]-1-phenylethanone]

From patent US20060194823A1, “Sulfonamido-macrocycles as Tie2 inhibitors and the salts thereof, a pharmaceutical composition comprising these compounds, the method of preparing and the use thereof” (priority 2004, published 2006)
